“Also recorded” adds a separate entry of the source. Counter-ions that a name gives are not always drawn.
What was measured:
[1] = test system: C57BL/6 mice; test: Conditioned place preference in mice; assay type: in vivo; conditions: SC, abuse liability model, vs. vehicle; hydrochloride
Experimental: (§1) Animals. Male C57BL/6 mice, 5-8 weeks of age, (body weight 25-30 g; Envigo, Indianapolis, IN, USA) were housed 5 per polycarbonate tub with soft bedding in a temperature-and humidity-controlled vivarium. Mice were maintained under a 12-h light/dark cycle with lights on at 06:00. Food and water were available ad libitum. Animals acclimated to the vivarium for 1 week prior to experimental manipulations.
Drugs and Drug Administration. Compound 4 was prepared as described above. All other compounds were commercially obtained. Compound 4 and saline vehicle were administered subcutaneously (SC), with doses calculated based on the HCl salt, while the positive control oxycodone was administered intraperitoneally (IP), with the dose calculated based on the HCl salt. […]
Conditioned Place Preference. Reward and/or aversion was assessed in conditioned place preference chambers (Model MED-CPP-3013; Med Associates, St. Albans, VT). […]
Group size was n=10 per treatment. […] Final drug preference was assessed in a 15-minute post-conditioning trial and was calculated by subtracting the time in the drug-paired compartment at baseline from the time in the drug-paired compartment post-conditioning, with positive values reflecting reward and negative values reflecting aversion.
For all trials, time spent in chambers as well as movement was quantified by infrared photobeam detectors and calculated by Med-PC IV software. […]

[2] = test system: C57BL/6 mice; test: Open field locomotor activity in mice; assay type: in vivo; conditions: SC
Experimental: as §1
Drugs and Drug Administration. Compound 4 was prepared as described above. Compound 4 and saline vehicle were administered subcutaneously (SC), with doses calculated based on the HCl salt. Normal saline was used as the vehicle. All compounds were administered at a volume of 10 mL/kg. Compound 4 or vehicle were administered immediately before the start of the recording session.
Locomotor Activity. Locomotor activity was measured in experimental cages (length×width x height: 560×560×330 mm) by an animal movement analysis system SCANET MV-40 ([…] Co., Ltd., Toyama, Japan). The cumulative activity was recorded for 30 minutes prior to drug administration to establish a baseline, and then animals were recorded for 60 minutes immediately after drug administration. Cages were cleaned between testing sessions.
Statistical Analysis. The total number of beam breaks were summed into 5-minute time bins. The data points shown are the mean ±standard error of the mean (SEM). […]

With CCN(C)CCc1c[nH]c2ccc(F)cc12 [Compound 4, N-ethyl-2-(5-fluoro-1H-indol-3-yl)-N-methylethan-1-amine hydrochloride] the “preference for the drug-paired compartment” value [1] was “did not induce any significant preference; also recorded: not significantly different from vehicle”, the “total locomotor activity in the open field” value ([2]; 60 minutes after administration) was “dose-dependent decrease” and the “locomotor activity, highest dose group” value ([2]; highest dose group) was “near complete reduction in activity”.
